According to patent US20240109843A1, “BENZALDEHYDE COMPOUNDS WITH DIRECT POLYMER DESTABILIZING EFFECTS TO TREAT SICKLE CELL DISEASE” (VIRGINIA COMMONWEALTH UNIVERSITY, priority 2018, published 2024):

What was measured:
[1] = target: T1, Hb (Mus musculus, UniProt P01942); experiment: In vivo Hb oxygen affinity shift (Δp50) in wild-type mice; set-up: species or system C57BL/6 mice; conditions: for increase in Hb affinity (Δp50): IP 150 mg/kg
T1 construct: from tissue; host or cells: blood (red cell lysates) of dosed C57BL/6 mice
T1 sequence (P01942 2-142 limits assumed): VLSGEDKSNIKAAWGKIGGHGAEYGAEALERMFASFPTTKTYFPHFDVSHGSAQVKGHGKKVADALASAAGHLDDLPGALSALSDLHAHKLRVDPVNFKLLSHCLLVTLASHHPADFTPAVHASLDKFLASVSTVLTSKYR
T1 sequence (P02088 2-147 partner limits assumed): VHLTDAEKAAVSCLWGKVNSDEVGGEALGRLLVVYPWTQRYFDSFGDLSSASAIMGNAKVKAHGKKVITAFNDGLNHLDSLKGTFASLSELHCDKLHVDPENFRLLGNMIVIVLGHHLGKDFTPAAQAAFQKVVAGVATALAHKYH
Procedure: We tested in vivo pharmacologic (pharmacodynamics) effects of select PP compounds in C57BL/6 mice. The animals were treated with a single intraperitoneal (IP) (150 mg/kg body weight) dose of PP6, PP10, PP14, and TD7, which were formulated with 30% PEG300. Blood samples were obtained prior to treatment (0) and 1, 3 and 6 h post-treatment, via submandibular bleeding, and subjected to hemolysis using standard methods. Clarified lysates, free of cell debris and red blood cell ghosts were analyzed by cation-exchange HPLC to determine the levels of drug-modified hemoglobin (adducts); and to conduct oxygen equilibrium studies to determine degrees of shift in p50 values using methodologies described earlier for in vitro studies on human samples. In a subsequent follow-up experiment, a new excipient obtained from Catalent Pharma Solutions was also used to formulate PP14 and used for a single intraperitoneal (IP) and oral (150 mg/kg body weight) dose. Blood samples were obtained prior to treatment (0) and 1, 3 or 5 h post-treatment, via submandibular bleeding, and used to determine the levels of drug-modified hemoglobin (adducts); and to conduct oxygen equilibrium studies to determine degrees of shift in p50 values as described above.

[2] = system: RBCs from donors with homozygous SCD; experiment: Oxygen-independent sickle inhibition in SS blood suspensions under anoxia (100% nitrogen); format: cell-based, human; conditions: Homo sapiens, 2 mM, 4 biological replicates, read-out: % Sickling Inhibition (Anoxia)
In short: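 After room-air re-oxygenation for 15 min to reverse sickling, SS blood suspensions were held under 100% nitrogen for 1 h (screening) or up to 2.5 h (time course), with aliquots fixed at set intervals. Sickled versus non-sickled cells were counted by bright-field microscopy to calculate sickle inhibition.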

[3] = system: sickle red blood cells; experiment: Antisickling study with human sickle blood under 2.5% oxygen; format: cell-based; conditions: Homo sapiens, Erythrocyte, sickle RBCs, 2.5% oxygen, read-out: sickling inhibition
In short: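 Homozygous SCD blood at 20% hematocrit preincubated with compound (0.5, 1, 2 mM) under air for 1 h at 37 °C, then under 2.5% O2 for 1 h. Cells fixed in 2% glutaraldehyde without air exposure; sickling scored by bright-field morphology at 40×.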

[4] = target: T2, sickle Hb (Homo sapiens, UniProt P69905); experiment: Oxygen equilibrium (P50 shift) of lysates from treated sickle blood; format: cell-based; conditions: 0.5, 1 and 2 mM, SS blood
T2 construct: Blood suspensions from subjects with homozygous SCD; from tissue; host or cells: blood suspensions (20% hematocrit) from donors with homozygous SCD; lysates of the treated red cells
T2 sequence (P69905 2-142 limits assumed): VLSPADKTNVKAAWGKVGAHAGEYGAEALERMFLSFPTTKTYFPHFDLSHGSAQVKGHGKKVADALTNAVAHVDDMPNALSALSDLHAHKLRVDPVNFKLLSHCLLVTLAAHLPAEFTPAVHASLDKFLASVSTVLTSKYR
Procedure: Blood suspensions from subjects with homozygous SCD (resuspended in Hemox™ buffer to a final hematocrit 20%) were incubated under air in the absence or presence of the compounds (0.5 mM, 1 mM and 2 mM) at 37° C. for 1 h to ensure that binding had attained equilibrium. The suspensions were then incubated under hypoxic conditions (2.5% oxygen/97.5% nitrogen) at 37° C. for 1 h. Aliquot samples were fixed with 2% glutaraldehyde solution without exposure to air, and then subjected to microscopic morphological analysis of bright field images (at 40× magnification) of single layer cells on an Olympus BX40 microscope fitted with an Infinity Lite B camera (Olympus), and the coupled Image Capture software. The residual samples were washed in phosphate-buffer saline, and hemolyzed in hypotonic lysis buffer for subsequent Hb-modification and oxygen equilibrium analyses.
For oxygen equilibrium studies, approximately 100 μL aliquot samples from the above clarified lysate were added to 4 mL of 0.1M potassium phosphate buffer, pH 7.0, in cuvettes and subjected to hemoximetry analysis using a Hemox™ Analyzer (TCS Scientific Corp.) to assess P50 shifts. Degree of P50 shift (ΔP50) was expressed as percentage fractions of control DMSO-treated samples.

[5] = target: Hb (Homo sapiens, UniProt P69905); experiment: Oxygen equilibrium curve (OEC) studies with normal whole blood; format: cell-based; set-up: Hemoglobin modification, studies using non-sickling AA blood; from tissue; host or cells: non-sickling (AA) human blood, red blood cells; conditions: normal whole blood, 0.5, 1, 2 mM
Chain of Hb (Homo sapiens, UniProt P69905) (P69905 2-142 limits assumed): as above
Chain of Hb (Homo sapiens, UniProt P69905) (P68871 2-147 partner limits assumed): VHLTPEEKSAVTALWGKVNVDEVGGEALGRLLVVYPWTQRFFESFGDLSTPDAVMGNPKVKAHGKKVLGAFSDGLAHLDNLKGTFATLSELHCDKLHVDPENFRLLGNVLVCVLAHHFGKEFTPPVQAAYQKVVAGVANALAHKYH
In short: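 Whole human blood at 30% hematocrit incubated with compound at 0.5, 1.0 or 2.0 mM (DMSO) or without. After equilibration, pO2 and sO2 measured by automated blood gas analyser across saturation levels, and the oxygen equilibrium curve fitted by nonlinear regression.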

## COC(=O)c1ccc(COc2cccc(O)c2C=O)cn1 [PP14, Methyl 5-((2-formyl-3-hydroxyphenoxy)methyl)picolinate]
[1]; 30% PEG300
  increase in Hb affinity (Δp50): 12%
[1]; Catalent excipient, 5 hr
  increase in Hb affinity (Δp50): 43.5±7.7%
[1]; oral gavage 150 mg/kg, Catalent excipient
  increase in Hb oxygen affinity (Δp50): 10.3±1.5%
[2]
  inhibition at 2000 µM: 80.5 ± 17.4%
[3]; 0.5 mM
  inhibition at 500 µM: > 35%
[3]; 1 mM
  inhibition at 1000 µM: > 70%
[4]
  increase of Hb affinity for oxygen in sickle blood (in words): only marginally increasing Hb affinity for oxygen
[5]
  effect on Hb oxygen binding property (OEC): most significant activities
